Measured values as given in patent publication US5384417A, “Heptitols” (priority 1994, dated 1995).

Assays:
Type in all cases: biochemical
Lysosomal α-Mannosidase = molecular target: T1, Lysosomal α-Mannosidase (Homo sapiens, UniProt O00754); assay: inhibition of human liver lysosomal α-mannosidase; conditions: for inhibition at 1000 µM: 1 mM inhibitor, read-out: % Inhibition of Glycosidase Activity, α-Mannosidase Lysosomal
T1 construct: Human liver glycosidases were assayed; from tissue; host or cells: human liver
T1 sequence (O00754 50-1011): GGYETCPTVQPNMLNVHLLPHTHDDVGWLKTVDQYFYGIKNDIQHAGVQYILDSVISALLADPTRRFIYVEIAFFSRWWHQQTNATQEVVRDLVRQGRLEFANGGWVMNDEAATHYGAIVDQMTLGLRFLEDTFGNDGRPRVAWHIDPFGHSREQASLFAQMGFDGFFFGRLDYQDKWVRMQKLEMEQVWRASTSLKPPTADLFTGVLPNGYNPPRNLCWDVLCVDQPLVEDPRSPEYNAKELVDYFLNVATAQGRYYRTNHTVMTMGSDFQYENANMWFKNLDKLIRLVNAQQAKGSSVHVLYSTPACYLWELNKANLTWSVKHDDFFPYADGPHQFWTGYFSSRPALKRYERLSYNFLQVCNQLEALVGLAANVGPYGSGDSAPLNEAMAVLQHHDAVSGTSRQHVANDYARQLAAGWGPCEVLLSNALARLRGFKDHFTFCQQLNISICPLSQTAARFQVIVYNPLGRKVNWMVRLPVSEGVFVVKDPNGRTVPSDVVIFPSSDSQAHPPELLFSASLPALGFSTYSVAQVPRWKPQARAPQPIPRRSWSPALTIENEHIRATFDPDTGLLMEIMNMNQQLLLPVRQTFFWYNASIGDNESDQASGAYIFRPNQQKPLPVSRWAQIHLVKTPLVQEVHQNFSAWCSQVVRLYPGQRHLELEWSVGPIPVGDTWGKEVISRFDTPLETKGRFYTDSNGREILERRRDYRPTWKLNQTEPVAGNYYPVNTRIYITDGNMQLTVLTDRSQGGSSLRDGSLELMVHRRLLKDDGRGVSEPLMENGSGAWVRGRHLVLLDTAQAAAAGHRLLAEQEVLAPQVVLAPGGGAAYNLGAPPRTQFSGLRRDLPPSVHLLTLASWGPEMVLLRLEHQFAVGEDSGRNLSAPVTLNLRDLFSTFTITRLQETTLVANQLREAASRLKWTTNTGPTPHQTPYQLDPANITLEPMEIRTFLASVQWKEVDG
Experimental: (§1) Human liver glycosidases were assayed in the absence and presence [1 mM] of each of the potential inhibitors, using the appropriate buffered 4-methylumbelliferyl glycosides as substrates, as previously described.^17 See Table I, below.

α-Glucosidase = assay: inhibition of human liver α-glucosidase; conditions: 1 mM inhibitor
Experimental: as §1

β-Galactosidase = molecular target: T2, β-Galactosidase (Homo sapiens, UniProt P16278); assay: inhibition of human liver β-galactosidase; conditions: 1 mM inhibitor; read-out: % Inhibition of Glycosidase Activity, β-Galactosidase
T2 construct: Human liver glycosidases were assayed; from tissue; host or cells: human liver
T2 sequence (P16278 29-677): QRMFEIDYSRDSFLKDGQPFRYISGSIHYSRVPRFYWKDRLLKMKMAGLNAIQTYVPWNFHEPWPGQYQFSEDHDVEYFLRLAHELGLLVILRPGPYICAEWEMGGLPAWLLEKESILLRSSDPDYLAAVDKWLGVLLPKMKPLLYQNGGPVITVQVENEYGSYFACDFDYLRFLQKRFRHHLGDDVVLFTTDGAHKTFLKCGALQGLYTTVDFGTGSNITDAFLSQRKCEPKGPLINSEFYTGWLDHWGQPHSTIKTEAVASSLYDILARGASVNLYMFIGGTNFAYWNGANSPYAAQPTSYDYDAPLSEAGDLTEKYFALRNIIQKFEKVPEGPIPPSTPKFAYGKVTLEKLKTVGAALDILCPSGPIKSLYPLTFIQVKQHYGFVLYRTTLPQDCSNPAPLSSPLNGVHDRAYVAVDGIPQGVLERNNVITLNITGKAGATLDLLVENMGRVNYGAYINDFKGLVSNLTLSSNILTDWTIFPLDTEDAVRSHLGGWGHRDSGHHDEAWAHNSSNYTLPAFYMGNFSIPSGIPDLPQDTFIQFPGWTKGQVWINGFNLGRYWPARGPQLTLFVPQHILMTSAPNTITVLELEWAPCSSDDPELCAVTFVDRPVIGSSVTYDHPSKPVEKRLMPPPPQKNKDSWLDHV
Experimental: as §1

β-Hexosaminidase = assay: inhibition of human liver β-hexosaminidase; conditions: for % Inhibition of Glycosidase Activity, β-Hexosaminidase: 1 mM inhibitor; for inhibition of β-hexosaminidase (in words): 1 mM
Experimental: as §1

Row | Compound | inhibition at 1000 µM (Lysosomal α-Mannosidase) | % Inhibition of Glycosidase Activity, α-Glucosidase (α-Glucosidase) | inhibition at 1000 µM (β-Galactosidase) | % Inhibition of Glycosidase Activity, β-Hexosaminidase (β-Hexosaminidase) | inhibition of β-hexosaminidase (in words) (β-Hexosaminidase) | inhibition of lysosomal α-mannosidase (in words) (Lysosomal α-Mannosidase; compared with DIM (3))
1 | OC[C@@H](O)[C@H]1NC[C@@H](O)[C@H]1O [DIM (3)] | 97% | 0% | 76% | 28% |  | 
2 | OC[C@H]1NC[C@@H](O)[C@@H](O)[C@@H]1O [DMJ (1), deoxymannojirimycin] | 58% | 21% |  | 55% | moderate inhibition of β-hexosaminidase | 
3 | NC[C@H]1O[C@H]([C@H](O)CO)[C@H](O)[C@@H]1O [Manhepamine (5), 1-amino-2,5-anhydro-1-deoxy-D-glycero-D-talo-heptitol] | 2% | 0% | 0% | 46% | weak inhibitory properties towards β-N-acetylhexosaminidase | 
4 | OC[C@@H](O)[C@H]1N[C@H](CO)[C@@H](O)[C@H]1O [αHomoDIM (4), 2,5-dideoxy-2,5-imino-D-glycero-D-talo-heptitol] | 71% | 12% | 35% | 0% |  | decreases the inhibition of the lysosomal and neutral enzymes
5 | OC[C@H]1N[C@H](CO)[C@@H](O)C(O)[C@@H]1O (some centres unmarked) [αHomoDMJ (2)] | 49% | 4% | 0% | 1% | abolish the moderate inhibition of β-hexosaminidase | 
